Assay results reported in patent publication US6355225B1, “Fullerene contrast agent for magnetic resonance imaging and spectroscopy” (Wm. Marsh Rice University TDA Research, Inc., priority 1999, dated 2002).

What was measured:
Format in all cases: physicochemical
[1] = Water solubility of the C60(OH)32 fullerol
[2] = Effective magnetic moment of solid sample, Quantum Design MPMS-5S magnetometer at 5 Tesla; details: 300 K, after diamagnetic correction
Excerpt: (§1) The magnetic properties of the fullerol were characterized by several methods. […] A solid sample was further studied using a Quantum Design MPMS-5S […] magnetometer operating at 5 Tesla. […] After correction for the diamagnetic contribution of the sample (using data from C60 for the fullerene carbons and Pascal's constants for the OH groups), the final value of the effective magnetic moment, μb, of the C60(OH)32 is approximately 1.5 Bohr magnetons at 300 K. Given the large diamagnetic contribution, uncertainty in the diamagnetic correction factors, and assuming no spin orbit or other types of spin coupling, this is within the experimental error for predicting one free electron per fullerol molecule in the solid state. A measurement of the paramagnetism of the solution form of the acid fullerol was then conducted using the NMR method employing D2O as the solvent and t-butyl alcohol as the reference compound. Measurement of the chemical shift of the reference peaks indicated a paramagnetism of 2.1 Bohr magnetons at 300 K when in solution.

[3] = Paramagnetism in solution by the NMR method (D2O solvent, t-butyl alcohol reference); details: 300 K
Excerpt: as §1

[4] = Water proton relaxivity (T1), Bruker PC/20 relaxometer; details: 20 MHz (0.47 T), 40° C., four concentrations
Experimental: The paramagnetic fullerol's potential as an MRI relaxation agent was evaluated by direct measurement of its water proton relaxivity using a Bruker model PC/20 relaxometer (Bruker Ltd., Canada) operating at a fixed field of 20 MHz (0.47 T) and 40° C. Four separate measurements at four different concentrations were performed to determine the T1 relaxation. A plot of the results is shown in FIG. 3 and indicates a relaxivity of about 0.5 mM^−1sec^−. The relaxivity of the compound is thus considerably lower than the best currently available Gd-chelates (ca. […]) but is still large enough to be useful in the body.

[5] = Air stability of the paramagnetic fullerol
Excerpt: According to a second embodiment, a water-soluble, paramagnetic fullerene derivative comprising about 32 hydroxyl groups attached to C60 fullerene was synthesized and shown to be air-stable, paramagnetic, and an efficient water proton relaxation agent.
These experimental results make C60(OH)32 (or C60(OH)32^− or C60(OH)32^2−) the first reported water-soluble, air-stable fullerene paramagnetic radical.

For C60(OH)32, the solubility in water [1] was “at least 4 mM”, the effective magnetic moment [2] was “approximately 1.5 Bohr magnetons” and the paramagnetism in solution [3] was 2.1 Bohr magnetons. For the same substance, the “water proton relaxivity (T1)” value [4] was “about 0.5 mM^−1sec^−” and the stability in air [5] was “air-stable”.
